This is an account of results in patent US5621000A, “Nitric esters having a pharmacological activity and process for their preparation” (priority 1992, dated 1997).

Where two headings read alike, the source gives them in different places. Where only a bound is given, the exact number is not on record here.

Data set [1] relates to human platelets. The experiment in a line: Anti-platelet aggregation activity on platelets stimulated by arachidonic acid. Format: cell-based. As for the experimental part: (§1) The anti-inflammatory and anti-platelet aggregation activity as well as the gastrointestinal ulcerogenicity, for instance of nitric esters having the following formulae, were tested by means of biological studies: [drawing 16]
The anti-inflammatory activity of said nitric esters was determined in Wistar rats utilizing the method of the carrageenan paw edema, as reported in C. A. WINTER, E. RISLEY, G. W. NUSS, Proc. Soc.
(§2) The anti-inflammatory and anti-platelet aggregation activity as well as the gastrointestinal ulcerability activity of said derivatives are given on Table 1, and are expressed, for each nitric ester indicated, as the power ratio relative to the corresponding acids non functionalized according to the general formula (I), according to this invention. Each value represents the mean of the values obtained by the treatment of 10 animals.

In data set [2] the test system is gastrointestinal ulcerogenicity. Nature of the data set: Gastrointestinal ulcerability after oral administration. The data set is classed as in vivo, rat. As for the experimental part:
as §1
The gastrointestinal ulcerability was evaluated by oral administration in the rat.
as §2

Data set [3] relates to carrageenan paw edema. Nature of the data set: Carrageenan paw edema, anti-inflammatory activity. Format: in vivo, Wistar rats. Particulars: for ANTI-INFLAM. ACTIVITY (power ratio relative to the corresponding acid): carrageenan paw edema, Wistar rats, mean of 10 animals; for efficacy in rat carrageenan paw edema vs reference drugs: p.o., compared with Ketoprofen and Flurbiprofen. The method, then: as §1
The anti-inflammatory activity of said nitric esters was determined in Wistar rats utilizing the method of the carrageenan paw edema, as reported in C. A. WINTER, E. RISLEY, G. W. NUSS, Proc. Soc. Exp. Biol. Med. 111,544 (1962), while the anti-platelet aggregation activity of said derivatives was determined on human platelets stimulated by arachidonic acid, according to the method described by V. BERTELE et al., Science 220,517 (1983).
as §2
On the technique in general: The carrageenan paw model is a standard test of acute inflammation.

Data set [4] deals with adjuvant arthritis. The experiment in a line: Rat adjuvant arthritis. The data set is classed as in vivo. The settings on record: 3 mg/kg p.o., 19 consecutive days (days 3 through 21 after adjuvant injection), compared to controls.
Data set [5] in a line: Rat gastric mucosa injury. Particulars: po.
Data set [6] concerns prostaglandin E2 synthesis (gastric). Nature of the data set: Gastric prostaglandin synthesis. The data set is classed as in vivo. Particulars: for inhibition of gastric prostaglandin E2 synthesis: at the highest dose (5-20 mg/kg p.o.).
Data set [7] concerns prostaglandin E2 in exudate. Nature of the data set: Prostaglandin synthesis in the inflammatory exudate (carrageenan sponge). Format: in vivo. Particulars: for inhibition at 20 mg/kg: po, read-out: inhibition of the formation of prostaglandin E2 in exudate. From the text: PROSTAGLANDIN SYNTHESIS IN THE INFLAMMATORY EXUDATE.
Subcutaneous implantation of carrageenan sponge elicits the infiltration of inflammatory cells, as reported in Nature 284, 271 (1980). […]

Data set [8] concerns central nervous, autonomic, cardiovascular, respiratory and gastrointestinal systems. The experiment in a line: General (secondary) pharmacology. Particulars: in comparison with Ketoprofen or Flurbiprofen. The data set is classed as in vivo.
In data set [9] the test system is non rodents. Nature of the data set: in vivo. The data set is classed as in vivo. The settings on record: for tolerability in non rodents: increasing oral doses up to 30 mg/kg, preliminary; for mortality in non rodents: 10 mg/kg, reference compounds.
Data set [10] in a line: in vivo. Format: in vivo. The settings on record: in vivo, read-out: maximum tolerated dose: highest oral dose without apparent symptoms.
The test system of data set [11] is plasma nitrate/nitrite levels. Nature of the data set: NO release: plasma nitrate/nitrite levels. Format: in vivo. Particulars: for increase of plasma nitrate/nitrite levels: one hour after the administration; for effect on plasma nitrate/nitrite levels: reference compounds.
Data set [12] deals with leukocyte adherence to mesenteric post-capillary venules. The experiment in a line: Gastric leukocyte adherence/vessel diameter (intravital microscopy). The data set is classed as in vivo. Particulars: for blood pressure: one hour period after administration. From the text:
GASTRIC LEUKOCYTE ADHERENCE/VESSEL DIAMETER. […] J. Physiol.

The subject of data set [13] is phenylquinone writhing. Nature of the data set: Mouse phenylquinone writhing. Format: in vivo. Particulars: 3 to 10 mg/kg p.o.
Data set [14] deals with gastric mucosa. Nature of the data set: Rat gastric mucosa injury.
Data set [15] relates to collagen-induced platelet aggregation. The experiment in a line: In vivo platelet aggregation, collagen-induced. The settings on record: 20 mg/kg p.o. in the rat; for inhibition at 20 mg/kg: Platelet, po, versus controls. From the text: IN VIVO PLATELET AGGREGATION.
Data set [16] has as its system mouse. Nature of the data set: Preliminary acute toxicity in the mouse by two administration routes. The data set is classed as in vivo. Particulars: oral or intraperitoneal doses of 300 mg/kg.
Data set [17] has as its system gastric mucosa. Particulars: rat, in vivo, po.
Setting [18] is: oral administration in the rat, ratio to corresponding acid, mean of 10 animals.
Where [19] appears, read: prior to and during one hour after administration, intravital microscopy.

Consider `CC(C(=O)OCCCCO[N+](=O)[O-])c1ccc(C(=O)c2cccs2)cc1` (stereo not shown) [(XXIV)], for which the “ANTI-AGGREG. ACTIVITY (power ratio relative to the corresponding acid)” value in [1] is listed as 1,30. Moreover, the “GASTRO-INTESTINAL ULCERABILITY (power ratio relative to the corresponding acid)” value in data set [2] (setting [18]) was 0,35. Further, in data set [3], the “ANTI-INFLAM. ACTIVITY (power ratio relative to the corresponding acid)” value is 1,20.

For `CCC(C(=O)O)c1ccc(N2Cc3ccccc3C2=O)cc1` (stereo not shown) [Indobufen, reference compound], in data set [1], the “ANTI-AGGREG. ACTIVITY (power ratio relative to the corresponding acid)” value is listed as 1. The “GASTRO-INTESTINAL ULCERABILITY (power ratio relative to the corresponding acid)” value in data set [2] (setting [18]) amounted to 1. Besides, the “ANTI-INFLAM. ACTIVITY (power ratio relative to the corresponding acid)” value in data set [3] is reported as 1.

Take `CC(C(=O)O)c1ccc(C(=O)c2cccs2)cc1` (stereo not shown) [Suprofen, reference compound]: in data set [1], the “ANTI-AGGREG. ACTIVITY (power ratio relative to the corresponding acid)” value amounted to 1. In [2] (rat, in vivo, po), the “GASTRO-INTESTINAL ULCERABILITY (power ratio relative to the corresponding acid)” value is 1. Further, the “ANTI-INFLAM. ACTIVITY (power ratio relative to the corresponding acid)” value in [3] came out at 1.

As for `CC(C(=O)OCCCCO[N+](=O)[O-])c1ccc(-c2ccccc2)c(F)c1` (stereo not drawn) [(XII), nitric ester of 2-fluoro-alpha-methyl-4-diphenyl acetate of 4-hydroxybutyl], in [4], the “reduction in the arthritic symptomatology” value is “significant and comparative reduction in the arthritic symptomatology”. Moreover, the no observed adverse effect level (NOAEL) – broadly, the highest dose or exposure tested at which no adverse effect was seen – in data set [5] (in vivo) was at least 30 mg/kg. In data set [6], the “inhibition of gastric prostaglandin E2 synthesis” value is given as “more than 90%”. Further, the inhibition (in general, the change of the read-out against control, counted positive when it falls) at 20 mg/kg in data set [7] was above 75%. Besides, the “additional adverse reactions (secondary pharmacological evaluation)” value in data set [8] is “No relevant additional adverse reactions were observed”. Moreover, in data set [9], the “tolerability in non rodents” value is reported as “very well tolerated”. The MTD in data set [10] (oral, non rodents, increasing doses up to 30 mg/kg, preliminary) is at least 30 mg/kg. Also, the “efficacy in rat carrageenan paw edema vs reference drugs” value in [3] is “efficacy comparable with the corresponding reference drugs”. Moreover, the “increase of plasma nitrate/nitrite levels” value in data set [11] is “more than 50%”. In data set [12], the blood pressure entry is recorded as “No changes in blood pressure were observed”. Moreover, in data set [12] (setting [19]), the diameter of vessels result is recorded as “increasing the diameter of vessels significantly” and the “leukocyte adherence to post-capillary venules” value (“leukocyte adherence” below) is “did not induce significant leukocyte adherence”. Also, in data set [13], the “efficacy in phenylquinone writhing” value is “fully effective”.

For the compound `CC(C(=O)OCCCCO[N+](=O)[O-])c1cccc(C(=O)c2ccccc2)c1` (stereo not shown) [(XVIII), nitric ester of 2-(3-benzoilphenyl)propionate of 4-hydroxybutyl], the “reduction in the arthritic symptomatology” value in data set [4] is “significant and comparative reduction in the arthritic symptomatology”. This compound also registered a no-observed-adverse-effect level (NOAEL) in [5] (gastric mucosa) of at least 30 mg/kg. For the same compound, the “gastric tolerability relative to reference compounds” value in data set [14] (3 to 30 mg/kg p.o.) is recorded as “significantly better tolerated than reference compounds”. In data set [15], the “inhibition of platelet aggregation, comparison with Flurbiprofen” value is “significantly more effective than the latter” and the inhibition at 20 mg/kg came out at 66%. In [6] (5-20 mg/kg p.o., vs Ketoprofen and Flurbiprofen), the “inhibition of gastric prostaglandin E2 synthesis relative to reference compounds” value was “inhibited significantly and comparatively to the corresponding reference compounds”. Besides, the “inhibition of gastric prostaglandin E2 synthesis” value in data set [6] was “more than 90%”. For the same compound, in [16], the acute toxicity result is listed as “No evident toxicity was observed”. In [7] (20 mg/kg p.o., vs Ketoprofen and Flurbiprofen), the “efficacy on exudate prostaglandin E2 relative to reference compounds” value is “comparative efficacy to the corresponding reference compounds”. In [7] (20 mg/kg p.o., compared with controls), the inhibition at 20 mg/kg was above 75%. For the same compound, in data set [1], the “ANTI-AGGREG. ACTIVITY (power ratio relative to the corresponding acid)” value is on record as 1,35. Moreover, the “additional adverse reactions (secondary pharmacological evaluation)” value in data set [8] is “No relevant additional adverse reactions were observed”. For the same compound, the “tolerability in non rodents” value in data set [9] is “very well tolerated”. The MTD in data set [10] (po) was at least 30 mg/kg. For the same compound, in data set [2] (setting [18]), the “GASTRO-INTESTINAL ULCERABILITY (power ratio relative to the corresponding acid)” value is given as 0,20. Moreover, in data set [3], the “ANTI-INFLAM. ACTIVITY (power ratio relative to the corresponding acid)” value is 1,25 and the “efficacy in rat carrageenan paw edema vs reference drugs” value is “efficacy comparable with the corresponding reference drugs”. In data set [11], the “increase of plasma nitrate/nitrite levels” value is listed as “more than 50%”. Moreover, in data set [12], the blood pressure result is reported as “No changes in blood pressure were observed”. Also, in data set [12] (setting [19]), the diameter of vessels result was “increasing the diameter of vessels significantly” and the “leukocyte adherence” value is recorded as “did not induce significant leukocyte adherence”. In addition, in data set [13], the “efficaciousness in phenylquinone writhing relative to reference compounds” value is “almost comparable with that of the corresponding reference compounds” and the “efficacy in phenylquinone writhing” value was “fully effective”.

Turning to `CCC(C(=O)OCCCCO[N+](=O)[O-])c1ccc(N2Cc3ccccc3C2=O)cc1` (stereo not shown) [(XXV)], the “ANTI-AGGREG. ACTIVITY (power ratio relative to the corresponding acid)” value in data set [1] is 1,25. For the same compound, in data set [2] (setting [18]), the “GASTRO-INTESTINAL ULCERABILITY (power ratio relative to the corresponding acid)” value is on record as 0,30. Moreover, the “ANTI-INFLAM. ACTIVITY (power ratio relative to the corresponding acid)” value in data set [3] is reported as 1,05.

As to `CCc1cccc2c3c([nH]c12)C(CC)(CC(=O)OCCCCO[N+](=O)[O-])OCC3` (stereo not shown) [(XXVI)], the “ANTI-AGGREG. ACTIVITY (power ratio relative to the corresponding acid)” value in data set [1] was 1,10. In addition, the “GASTRO-INTESTINAL ULCERABILITY (power ratio relative to the corresponding acid)” value in data set [2] (setting [18]) is listed as 0,33. For the same compound, the “ANTI-INFLAM. ACTIVITY (power ratio relative to the corresponding acid)” value in data set [3] is recorded as 1,40.

Take `CC(C(=O)O)c1ccc(-c2ccccc2)c(F)c1` (stereo not shown) [Flurbiprofen, reference compound]: at 20 mg/kg the inhibition in [15] was 40%. Further, the “dose causing the onset of gastric damages” value in data set [17] is reported as at most 3 mg/kg. Moreover, the “mortality in non rodents” value in data set [9] is on record as “caused the death of the animals”. For the same compound, in data set [11], the “effect on plasma nitrate/nitrite levels” value is given as “did not affect plasma nitrate/nitrite levels significantly”. Also, the “leukocyte adherence” value in [12] (in vivo) is reported as “Unlike Ketoprofen or Flurbiprofen, (XVIII) or (XII) did not induce significant leukocyte adherence”.

Regarding `CC(C(=O)O)c1cccc(C(=O)c2ccccc2)c1` (stereo not shown) [Ketoprofen, 2-(3-benzoylphenyl)propionic acid, reference compound], the “severity of gastric damages” value in data set [14] (3 to 30 mg/kg p.o.) is “dose-dependent”. In addition, in [14] (p.o.), the “dose causing the onset of gastric damages” value is at most 3 mg/kg. Further, in data set [9], the “mortality in non rodents” value was “caused the death of the animals”. Also, the “effect on plasma nitrate/nitrite levels” value in data set [11] was “did not affect plasma nitrate/nitrite levels significantly”. For the same compound, the “leukocyte adherence” value in data set [12] (setting [19]) is “Unlike Ketoprofen or Flurbiprofen, (XVIII) or (XII) did not induce significant leukocyte adherence”.
